The record followed here is PMC5865651, “Novel inhibitor candidates of TRPV2 prevent damage of dystrophic myocytes and ameliorate against dilated cardiomyopathy in a hamster model” (Oncotarget, 2018).

One test concerns the target T1, hTRPC1 (Homo sapiens, UniProt P48995).
T1 construct: expressed in transfected cells; host or cells: HEK293 cells
Description: Store-operated Ca2+ entry after thapsigargin in hTRPC1-transfected HEK293 cells. Format: cell-based. As for the experimental part: (§1) Figure 4 Effects of inhibitor compounds on the Ca^2+ response of cells expressing hTRPV1, hTRPV2, or hTRPC1 (A) Effect of compounds on CaCl2 (5 mM)-induced peak fluorescence ratio in non-transfected (nt) or hTRPV2-transfected CHO cells. The extracellular Ca^2+-dependent increase in the ratio of fura-2 fluorescence intensity at 340/380 nm (ΔR, 2 min after addition of chemicals) was plotted as ΔR/R0 after normalising to the initial fluorescence ratio (R0). […] Solid bar, no inhibitor. (B) Effect of compounds on 2-APB (1 mM)/high extracellular CaCl2-induced peak fluorescence ratio in nt or hTRPV1-transfected HEK293 cells. […] (C) Effect of compounds on store-operated Ca^2+ entry in nt or hTRPC1-transfected HEK293 cells. Cells were treated with the endoplasmic reticulum Ca^2+ pump inhibitor thapsigargin and exposed to CaCl2 and the indicated compounds. ΔR was measured 2 min after the addition of CaCl2. […] Data are shown as mean ± SD (n = 5).
[Ca^2+]i was measured by a ratiometric fluorescence method as previously described. […] Fura-2-AM fluorescence was measured using an Aquacosmos fluorescence image processor (Hamamatsu Photonics, Hamamatsu, Japan). The time-course data are presented as the ratio of fluorescence at an excitation wavelength of 340 nm to that at 380 nm. The increase in the fluorescence ratio induced by the TRPV2 agonist 2-APB or high extracellular Ca^2+ (ΔR) was normalized to the initial ratio (R0) before stimulation. The fluorescence relative ratio (ΔR/R0) was plotted as the summary data in the fluorescence imaging analysis.

Test [1] deals with cardiomyopathic J2N-k hamsters. Put plainly: Cardiomyopathy in J2N-k hamsters in vivo (echocardiography, serum cTN-I, Masson's trichrome fibrosis). Also noted: species or system hamster. Conditions: 3 weeks. On the procedure:
Male δ-SG-deficient cardiomyopathic J2N-k and age-matched wild-type J2N-n hamsters (9 weeks old) were purchased from Japan SLC, Inc. (Shizuoka, Japan). Tranilast was ingested mixed with feed (300 mg/kg/day) as described previously, whereas other drugs (Figure 1) were administered orally in the drinking water at doses of 30 mg/kg (except lumin) per day for 3 weeks. In case of lumin, we first performed dose-dependent experiment at dose of 1,10 and100 mg/kg per day for 3 weeks, in order to determine the effective dose. […] After drug treatment, serum cardiac troponin (cTN)-I was measured and echocardiography analysis was performed. Histochemistry of cardiac muscles was performed as previously described. All animal experiments were performed according to the Guidelines for Animal Experimentation of the National Cerebral and Cardiovascular Center Research Institute.
Ventricles were fixed in phosphate-buffered saline containing 10% formalin and embedded in paraffin. Serial sections were cut at a thickness of 5 μm and stained with Masson's trichrome stain for morphological analysis. Sections were viewed under a BX41 light microscope (Olympus, Tokyo, Japan). Images were acquired with an FX380 digital camera (Olympus) and analysed using an FLVFS-LS imaging system (Flovel, Tokyo, Japan).
Fibrosis was assessed by measuring Masson's trichrome-positive areas. Briefly, colour images were converted to binary form by setting the threshold value so as to detect only blue-stained fibrotic areas, which were summed and reported as a percentage of the total.
Cardiac function was evaluated by echocardiography using a Sonos5500 ultrasound system (Hewlett-Packard, Palo Alto, CA, USA) with a 12-MHz transducer and M-mode imaging. The animals were sedated with tribromoethanol (350 mg/kg by intraperitoneal injection) during the process.
Creatine phosphokinase (CK) activity in the medium was determined using an in vitro colorimetric assay kit (CK Test Kit; Wako Pure Chemical Industries, Ltd., Osaka, Japan) according to the manufacturer's protocol The cTN-I level in the serum was measured, while quantitative immunoblotting and immunocytochemistry were performed as previously described. Protein concentration was measured using the bicinchoninic acid assay (Pierce Chemical Co., Rockford, IL, USA) with bovine serum albumin as the standard. All histochemical and physiological analyses were performed by investigators blinded to the drug treatments. Unless otherwise stated, results are presented as the mean ± SD of at least 5 determinations. The unpaired Student's t-test and one-way ANOVA followed by Dunnett's test were used to analyse the data. Values of P < 0.05 (indicated as asterisks in the figures) were considered statistically significant. All cellular measurements were repeated at least 5 times. Representative data are shown.

Another test addresses T2, hTRPV1 (Homo sapiens, UniProt Q8NER1).
T2 construct: expressed in transfected cells; host or cells: HEK293 cells
Put plainly: 2-APB/high extracellular CaCl2-induced increase in [Ca2+]i in hTRPV1-transfected HEK293 cells. Format: cell-based. As for the experimental part: as §1
[Ca^2+]i was measured by a ratiometric fluorescence method as previously described. Briefly, HEK293 cells were loaded with 4 μM fura-2-AM for 30 min at 37° C and maintained in balanced salt solution (BSS) (146 mM NaCl, 4 mM KCl, 2 mM MgCl2, 0.5 mM CaCl2, 10 mM glucose, 0.1% bovine serum albumin, and 10 mM HEPES/Tris, pH 7.4). Fura-2-AM fluorescence was measured using an Aquacosmos fluorescence image processor (Hamamatsu Photonics, Hamamatsu, Japan). The time-course data are presented as the ratio of fluorescence at an excitation wavelength of 340 nm to that at 380 nm. The increase in the fluorescence ratio induced by the TRPV2 agonist 2-APB or high extracellular Ca^2+ (ΔR) was normalized to the initial ratio (R0) before stimulation. The fluorescence relative ratio (ΔR/R0) was plotted as the summary data in the fluorescence imaging analysis.

[2] abbreviates: 30 mg/kg per day orally in drinking water.
The mark [3] stands for this setting: hTRPV1-transfected HEK293 cells, 2-APB 1 mM/high CaCl2, compound 15 μM.
Where [4] appears, read: hTRPC1-transfected HEK293 cells, thapsigargin, compound 15 μM.
Where [5] appears, read: unpublished observation, concentration not given.

Like-named read-outs stand apart in the source and are kept apart here.

T1 sequence (P48995 whole entry): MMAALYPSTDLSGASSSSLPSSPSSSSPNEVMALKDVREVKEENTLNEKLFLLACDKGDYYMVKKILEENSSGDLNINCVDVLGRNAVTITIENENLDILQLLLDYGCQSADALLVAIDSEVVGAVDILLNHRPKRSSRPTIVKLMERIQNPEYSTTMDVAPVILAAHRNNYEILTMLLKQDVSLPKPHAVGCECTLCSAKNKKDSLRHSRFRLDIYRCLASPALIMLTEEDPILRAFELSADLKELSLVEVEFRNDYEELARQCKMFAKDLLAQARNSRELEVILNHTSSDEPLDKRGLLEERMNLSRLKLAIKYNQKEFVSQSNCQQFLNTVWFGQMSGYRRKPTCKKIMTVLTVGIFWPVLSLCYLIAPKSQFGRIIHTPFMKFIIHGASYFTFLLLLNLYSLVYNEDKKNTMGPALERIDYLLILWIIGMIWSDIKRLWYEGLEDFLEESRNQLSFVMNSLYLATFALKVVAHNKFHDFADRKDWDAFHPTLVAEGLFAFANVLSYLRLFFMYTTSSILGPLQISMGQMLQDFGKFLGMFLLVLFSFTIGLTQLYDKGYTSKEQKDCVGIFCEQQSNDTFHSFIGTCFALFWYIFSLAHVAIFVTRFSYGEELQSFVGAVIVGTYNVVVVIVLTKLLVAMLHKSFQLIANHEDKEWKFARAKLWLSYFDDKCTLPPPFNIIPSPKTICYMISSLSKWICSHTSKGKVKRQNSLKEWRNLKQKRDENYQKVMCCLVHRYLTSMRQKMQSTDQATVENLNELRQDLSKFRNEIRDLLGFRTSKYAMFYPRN
T2 sequence (Q8NER1 whole entry): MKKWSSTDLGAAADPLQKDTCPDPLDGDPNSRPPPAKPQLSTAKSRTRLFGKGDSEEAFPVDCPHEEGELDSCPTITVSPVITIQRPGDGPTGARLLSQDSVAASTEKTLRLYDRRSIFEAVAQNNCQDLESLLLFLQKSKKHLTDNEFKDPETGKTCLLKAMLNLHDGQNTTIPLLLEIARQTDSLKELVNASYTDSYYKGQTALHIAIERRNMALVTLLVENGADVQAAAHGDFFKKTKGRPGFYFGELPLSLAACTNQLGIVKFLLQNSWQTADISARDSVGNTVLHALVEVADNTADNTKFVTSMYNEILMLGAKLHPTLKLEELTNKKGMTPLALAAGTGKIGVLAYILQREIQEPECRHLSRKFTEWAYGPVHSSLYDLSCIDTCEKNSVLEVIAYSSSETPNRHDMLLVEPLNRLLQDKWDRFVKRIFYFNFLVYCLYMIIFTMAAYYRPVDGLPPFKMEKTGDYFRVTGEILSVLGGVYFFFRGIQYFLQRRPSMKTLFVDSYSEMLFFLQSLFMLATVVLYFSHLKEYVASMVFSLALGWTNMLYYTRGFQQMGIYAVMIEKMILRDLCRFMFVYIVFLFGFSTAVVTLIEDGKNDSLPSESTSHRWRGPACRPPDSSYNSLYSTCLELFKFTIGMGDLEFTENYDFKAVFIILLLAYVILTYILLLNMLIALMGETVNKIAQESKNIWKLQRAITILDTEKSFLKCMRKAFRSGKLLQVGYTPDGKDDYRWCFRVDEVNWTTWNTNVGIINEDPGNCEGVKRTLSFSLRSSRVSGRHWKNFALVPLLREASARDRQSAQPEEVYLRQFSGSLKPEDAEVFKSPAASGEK

Consider `NCCOB(c1ccccc1)c1ccccc1` [2-APB, 2-aminoethoxydiphenylborate], for which, on hTRPC1, the “effect on store-operated increase in [Ca2+]i” value is given as “inhibited”.

As to `COc1cc(/C=C(\C#N)C(=O)Nc2ccccc2C(=O)O)cc(Cl)c1OC` [A3, 2-[(2E)-3-(3-Chloro-4,5-dimethoxyphenyl)-2-cyanoprop-2-enoylamino]benzoic acid], in test [1] (setting [2]), the “effect on fibrosis (Masson's trichrome)” value is recorded as “prevented fibrosis”, the “effect on fractional shortening (FS)” value is recorded as “prevented”, the “effect on left ventricular end-diastolic dimension (LVDd)” value is on record as “small effect” and the “effect on left ventricular end-systolic dimension (LVDs)” value is “prevented the increase”. The “effect on serum level of cTN-I” value in test [1] (setting [2]) is “reduced”. In addition, the “increase in [Ca2+]i via TRPV1” value at hTRPV1 (setting [3]) is “unaffected”. Moreover, at hTRPC1 (setting [4]), the “effect on store-operated increase in [Ca2+]i” value is on record as “neither A3, A48, A63, nor B6 had any effect”.

As for `COc1cccc(OCCn2cc(/C=N/n3cnnc3)c3ccccc32)c1` [B6, 1-{2-[3-((1E)-2-(1,2,4-triazol-4-yl)-2-azavinyl)indolyl]ethoxy}-3-methoxybenzene], in test [1] (setting [2]), the “effect on fractional shortening (FS)” value was “prevented”, the “effect on left ventricular end-diastolic dimension (LVDd)” value was “small effect”, the “effect on left ventricular end-systolic dimension (LVDs)” value was “prevented the increase” and the “effect on serum level of cTN-I” value is listed as “reduced”. Besides, the “increase in [Ca2+]i via TRPV1” value at hTRPV1 (setting [3]) is given as “unaffected”. The “effect on store-operated increase in [Ca2+]i” value on hTRPC1 (setting [4]) is recorded as “neither A3, A48, A63, nor B6 had any effect”.

For `CCN1C=CC(=CC=C(C=Cc2cc[n+](CC)c3ccccc23)c2cc[n+](CC)c3ccccc23)c2ccccc21.[I-].[I-]` [lumin, 4,4′-[3-[2-[1-ethyl-4(1H)-quinolinylidene]ethylidene]-1-propene-1,3-diyl]bis(1-ethylquinolinium) diiodide], in test [1] (10 mg/kg per day orally), the “effect on cardiac dysfunction (increased LVDs, reduced ejection fraction, decreased fractional shortening)” value is recorded as “prevented”; the “effect on fibrotic area” value is “reduced”; the “effect on the decrease in wall thickness” value is listed as “partially prevented”. For the same compound, the “increase in [Ca2+]i via TRPV1” value at hTRPV1 (setting [5]) is recorded as “did not affect”. In addition, on hTRPC1 (setting [5]), the “increase in [Ca2+]i via TRPC1” value is recorded as “did not affect”.
